This is an account of results in ChEMBL document CHEMBL6153108, “Otitiglycomycins A and B: Glycolipids from the Strain Nocardia otitidiscavarum 20S-13 with Antiviral Activity against Zika Virus” (J Nat Prod, 2025).

Data set [1] deals with Zika virus. The experiment in a line: Antiviral activity against ZIKV MR766NIID expressing GFP infected in african green monkey Vero E6 assessed as reduction in viral replication incubated for 24 hrs by flow cytometry assay. To be noted: for Activity: dose 0.3-100 µM. The class given is functional, organism-based. In general terms: In flow cytometry, cells or beads pass a laser one at a time.

Data set [2] relates to Vero C1008. The experiment in a line: Cytotoxicity against african green monkey Vero E6 cells assessed as cell viability at 100 uM incubated for 48 hrs by MTS assay. The class given is toxicity, cell-based. To be noted: chlorocebus sabaeus, vero c1008, 48 h. (Tetrazolium assays rely on reduction of a dye to a coloured formazan, in cell work by metabolically active cells.)

Data set [3] can be described thus: Cytotoxicity against african green monkey Vero E6 cells assessed as cell viability incubated for 48 hrs by MTS assay. The data set is classed as toxicity, cell-based, Vero C1008. To be noted: African green monkey (Chlorocebus sabaeus).
The subject of data set [4] is Zika virus. The experiment in a line: Antiviral activity against ZIKV MR766NIID expressing GFP infected in african green monkey Vero E6 assessed as neutralization of viral infection at 25 uM compound preincubated with virus for 2 hrs followed by 0.7 uM compound addition and measured after 2 hrs by flow cytometry analysis relative to control. The class given is functional, organism-based. To be noted: time 4.0 hrs.

For data set [5], the system named is Zika virus. The experiment in a line: Antiviral activity against ZIKV MR766NIID expressing GFP infected in african green monkey Vero E6 assessed as reduction in viral replication preincubated for 2 hrs and measured after 22 hrs by flow cytometry assay. The data set is classed as functional, organism-based. To be noted: time 24.0 hrs.
In data set [6] the test system is Zika virus. The experiment in a line: Antiviral activity against ZIKV MR766NIID expressing GFP infected in african green monkey Vero E6 assessed as reduction in viral replication measured after 24 hrs by flow cytometry assay. The data set is classed as functional. Further details: scale not given: the % may be the effect or the level left.
Data set [7] relates to Zika virus. Kind of data set: Antiviral activity against ZIKV MR766NIID expressing GFP infected in african green monkey Vero E6 assessed as reduction in viral replication at 50 uM incubated for 24 hrs by flow cytometry assay relative to control. The class given is functional. Details: scale not given: the % may be the effect or the level left.
Data set [8] has as its system Zika virus. The experiment in a line: Antiviral activity against ZIKV MR766NIID expressing GFP infected in african green monkey Vero E6 assessed as reduction in virus attachment to cell surface at 25 uM incubated for 1 hr by RT-qPCR analysis relative to control. Details: scale not given: the % may be the effect or the level left. The data set is classed as functional. For orientation: In qPCR the cycle at which signal appears reflects the starting amount.

The nature of data set [9]: Selectivity index, ratio of IC50 for cytotoxicity against african green monkey Vero E6 cells to IC50 for ZIKV MR766NIID expressing GFP infected in african green monkey. The data set is classed as toxicity, cell-based. To be noted: read-out: Ratio IC50.

What is called IC50 is the concentration needed to halve the response being measured.

Structures are written as SMILES. Active and inactive are the calls of the source. The calls are words filed in the database; no cut-off is given here.

As for `CCCCCCCCCCCCCCC(=O)O[C@H]1[C@@H](O[C@H](CO)C(=O)O)O[C@H](CO)[C@@H](O)[C@@H]1O`, in data set [1], the result was inactive. The Activity result in data set [2] is “Non-toxic”. Moreover, the IC50 at 48 h in data set [3] was greater than 100 µM.

As for `CCCCCCCCCCCCCCCCCC(=O)O[C@H]1[C@@H](O[C@H](CO)C(=O)O)O[C@H](CO)[C@@H](O)[C@@H]1OC(=O)C(C)C`, in [1] (Vero C1008, 24 h), the IC50 is 10.5 µM. Further, the Activity entry in data set [1] was “Dose-dependent-effect”; in [6], 100%; in data set [7], 100%; in data set [8] it was 90%; in [2], “Non-toxic”. Also, in [4], the outcome was Active. Also, in [5], the result was inactive. Moreover, the IC50 at 48 h in [3] is greater than 100 µM. Moreover, in data set [9], the selectivity ratio is greater than 10.
